From patent US9255090B2, “Heterocyclyl derivatives and their use as prostaglandin D2 receptor modulators” (Actelion Pharmaceuticals Ltd., priority 2012, dated 2016)

Molecular target: hCRTH2 receptor (Homo sapiens (Human), UniProt Q9Y5Y4)
Test: hCRTH2 receptor membranes radioligand (3H-PGD2) displacement assay
Assay type: binding
Conditions: 3H-PGD2 radioligand displacement, HEK293-hCRTH2 membranes
In short: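 Compound was first mixed with buffer, then 3H-PGD2 was added at 2.5 nM, and the reaction was started with hCRTH2 membranes from HEK293 cells at 20 μg/well. After 90 min at room temperature, mixtures were filtered and washed with ice-cold buffer, and retained radioactivity was counted.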

Chain of hCRTH2 receptor (Q9Y5Y4 whole entry): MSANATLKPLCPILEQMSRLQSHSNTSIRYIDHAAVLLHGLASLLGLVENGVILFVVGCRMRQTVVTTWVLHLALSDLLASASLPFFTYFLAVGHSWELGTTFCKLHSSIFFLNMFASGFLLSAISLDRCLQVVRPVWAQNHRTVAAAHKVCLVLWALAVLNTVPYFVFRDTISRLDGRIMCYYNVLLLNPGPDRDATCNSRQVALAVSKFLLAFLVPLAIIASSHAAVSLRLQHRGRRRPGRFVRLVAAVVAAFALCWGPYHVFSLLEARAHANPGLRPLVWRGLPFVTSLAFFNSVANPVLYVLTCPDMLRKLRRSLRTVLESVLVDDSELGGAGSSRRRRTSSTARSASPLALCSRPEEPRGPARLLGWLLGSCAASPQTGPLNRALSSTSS

Work on `O=C(O)COc1ccc(Cl)c(-c2cccc3c2CN(C(=O)OCc2ccccc2)CC3)c1` [Example 181, 8-(5-Carboxymethoxy-2-chloro-phenyl)-3,4-dihydro-1H-isoquinoline-2-carboxylic acid benzyl ester] yielded an IC50 of 123 nM.
Work on `COc1cc(CC(=O)O)ccc1-c1ccc(F)c2c1CN(C(=O)[C@@H]1C[C@H]1c1ccccc1)CC2` [Example 184, {4-[5-Fluoro-2-((1R,2R)-2-phenyl-cyclopropanecarbonyl)-1,2,3,4-tetrahydro-isoquinolin-8-yl]-3-methoxy-phenyl}-acetic acid] yielded an IC50 of 0.9 nM.
For `COc1cc(CC(=O)O)ccc1-c1ccc(F)c2c1CN(C(=O)CCc1c(C)[nH]c3ccccc13)CC2` [Example 186, (4-{5-Fluoro-2-[3-(2-methyl-1H-indol-3-yl)-propionyl]-1,2,3,4-tetrahydro-isoquinolin-8-yl}-3-methoxy-phenyl)-acetic acid], the IC50 was 2.66 nM.
`COc1cc(CC(=O)O)ccc1-c1ccc(F)c2c1CN(C(=O)CCn1ncc3cc(F)ccc31)CC2` [Example 190, (4-{5-Fluoro-2-[3-(5-fluoro-indazol-1-yl)-propionyl]-1,2,3,4-tetrahydro-isoquinolin-8-yl}-3-methoxy-phenyl)-acetic acid] showed an IC50 of 7.25 nM.
`COc1cc(CC(=O)O)ccc1-c1ccc(F)c2c1CN(C(=O)CCN1CCc3ccccc31)CC2` [Example 191, {4-[2-(3-2,3-Dihydro-indol-1-yl-propionyl)-5-fluoro-1,2,3,4-tetrahydro-isoquinolin-8-yl]-3-methoxy-phenyl}-acetic acid] showed an IC50 of 2.42 nM.
For `COc1cc(CC(=O)O)ccc1-c1ccc(F)c2c1CN(C(=O)CCOc1ccc(F)cc1)CC2` [Example 192, (4-{5-Fluoro-2-[3-(4-fluoro-phenoxy)-propionyl]-1,2,3,4-tetrahydro-isoquinolin-8-yl}-3-methoxy-phenyl)-acetic acid], the IC50 was 0.69 nM.
`COc1cc(OC(C)C(=O)O)ccc1-c1ccc(F)c2c1CN(C(=O)OCc1ccccc1)CC2` (stereo not drawn) [Example 202, 8-[4-(1-Carboxy-ethoxy)-2-methoxy-phenyl]-5-fluoro-3,4-dihydro-1H-isoquinoline-2-carboxylic acid benzyl ester] gave an IC50 of 179 nM.
`CCOc1ccc(CC(=O)O)cc1-c1ccc(F)c2c1CN(C(=O)CC(C)c1ccc(F)cc1)CC2` (stereo not drawn) [Example 212, (4-Ethoxy-3-{5-fluoro-2-[3-(4-fluoro-phenyl)-butyryl]-1,2,3,4-tetrahydro-isoquinolin-8-yl}-phenyl)-acetic acid] showed an IC50 of 11.4 nM.
For `CCOc1ccc(CC(=O)O)cc1-c1ccc(F)c2c1CN(C(=O)C(C)Cc1ccccc1)CC2` (stereo not drawn) [Example 213], the IC50 was 111 nM.
`CCCc1ccc(CC(=O)O)cc1-c1ccc(F)c2c1CN(C(=O)OCc1ccccc1)CC2` [Example 215, 8-(5-Carboxymethyl-2-propyl-phenyl)-5-fluoro-3,4-dihydro-1H-isoquinoline-2-carboxylic acid benzyl ester] gave an IC50 of 3.6 nM.
`CC(C)c1cc(CC(=O)O)ccc1-c1ccc(F)c2c1CN(C(=O)OCc1ccccc1)CC2` [Example 216, 8-(4-Carboxymethyl-2-isopropyl-phenyl)-5-fluoro-3,4-dihydro-1H-isoquinoline-2-carboxylic acid benzyl ester] was tested, and the IC50 was 19.4 nM.
`COc1cc(CC(=O)O)cc(OC)c1-c1ccc(F)c2c1CN(C(=O)OCc1ccccc1)CC2` [Example 218, 8-(4-Carboxymethyl-2,6-dimethoxy-phenyl)-5-fluoro-3,4-dihydro-1H-isoquinoline-2-carboxylic acid benzyl ester] was tested, and the IC50 was 1.7 nM.
`CCOc1ccc(CC(=O)O)cc1-c1ccc(F)c2c1CN(C(=O)[C@@H]1C[C@H]1c1ccccc1)CC2` [Example 220, {4-Ethoxy-3-[5-fluoro-2-((1R,2R)-2-phenyl-cyclopropanecarbonyl)-1,2,3,4-tetrahydro-isoquinolin-8-yl]-phenyl}-acetic acid] showed an IC50 of 13.5 nM.
`CCOc1cc(CC(=O)O)ccc1-c1ccc(F)c2c1CN(C(=O)[C@@H]1C[C@H]1c1ccccc1)CC2` [Example 231, {3-Ethoxy-4-[5-fluoro-2-((1R,2R)-2-phenyl-cyclopropanecarbonyl)-1,2,3,4-tetrahydro-isoquinolin-8-yl]-phenyl}-acetic acid] gave an IC50 of 10.5 nM.
`COc1ccc(CC(=O)O)cc1-c1ccc(F)c2c1CN(C(=O)CC1(c3ccccc3)CCC1)CC2` [Example 250, (3-{5-Fluoro-2-[2-(1-phenyl-cyclobutyl)-acetyl]-1,2,3,4-tetrahydro-isoquinolin-8-yl}-4-methoxy-phenyl)-acetic acid] gave an IC50 of 146 nM.
`COc1ccc(CC(=O)O)cc1-c1ccc(F)c2c1CN(C(=O)CC1(c3ccc(F)cc3)CCC1)CC2` [Example 251, [3-(5-Fluoro-2-{2-[1-(4-fluoro-phenyl)-cyclobutyl]-acetyl}-1,2,3,4-tetrahydro-isoquinolin-8-yl)-4-methoxy-phenyl]-acetic acid] was tested, and the IC50 was 414 nM.
`COc1ccc(CC(=O)O)cc1-c1ccc(F)c2c1CN(C(=O)CC1CC1)CC2` [Example 254, {3-[2-(2-Cyclopropyl-acetyl)-5-fluoro-1,2,3,4-tetrahydro-isoquinolin-8-yl]-4-methoxy-phenyl}-acetic acid] was tested, and the IC50 was 614 nM.
`COc1ccc(CC(=O)O)cc1-c1ccc(F)c2c1CN(C(=O)[C@H](C)c1ccccc1)CC2` [Example 255, {3-[5-Fluoro-2-((R)-2-phenyl-propionyl)-1,2,3,4-tetrahydro-isoquinolin-8-yl]-4-methoxy-phenyl}-acetic acid] gave an IC50 of 981 nM.
`COc1ccc(CC(=O)O)cc1-c1ccc(F)c2c1CN(C(=O)[C@@H]1CCCc3ccccc31)CC2` [Example 269, {3-[5-Fluoro-2-((R)-1,2,3,4-tetrahydro-naphthalene-1-carbonyl)-1,2,3,4-tetrahydro-isoquinolin-8-yl]-4-methoxy-phenyl}-acetic acid] showed an IC50 of 95.7 nM.
`CCOc1ccc(CC(=O)O)cc1-c1ccc(F)c2c1CN(C(=O)CC1(c3ccccc3F)CC1)CC2` [Example 276, [4-Ethoxy-3-(5-fluoro-2-{2-[1-(2-fluoro-phenyl)-cyclopropyl]-acetyl}-1,2,3,4-tetrahydro-isoquinolin-8-yl)-phenyl]-acetic acid] was tested, and the IC50 was 35.9 nM.
`CC(C)(CC(=O)N1CCc2c(F)ccc(-c3ccc(CC(=O)O)cc3OCC(F)(F)F)c2C1)c1ccccc1` [Example 286, [4-[5-Fluoro-2-(3-methyl-3-phenyl-butyryl)-1,2,3,4-tetrahydro-isoquinolin-8-yl]-3-(2,2,2-trifluoro-ethoxy)-phenyl]-acetic acid] was tested, and the IC50 was 8.9 nM.
`C[C@@H](CC(=O)N1CCc2c(F)ccc(-c3ccc(CC(=O)O)cc3OCC(F)(F)F)c2C1)c1ccccc1` [Example 287, [4-[5-Fluoro-2-((S)-3-phenyl-butyryl)-1,2,3,4-tetrahydro-isoquinolin-8-yl]-3-(2,2,2-trifluoro-ethoxy)-phenyl]-acetic acid] was tested, and the IC50 was 8.1 nM.
Compound `O=C(O)Cc1ccc(-c2ccc(F)c3c2CN(C(=O)[C@@H]2C[C@H]2c2ccccc2)CC3)c(OCC(F)(F)F)c1` [Example 289, [4-[5-Fluoro-2-((1R,2R)-2-phenyl-cyclopropanecarbonyl)-1,2,3,4-tetrahydro-isoquinolin-8-yl]-3-(2,2,2-trifluoro-ethoxy)-phenyl]-acetic acid] has an IC50 of 1.4 nM.
`CC(C)Oc1ccc(CC(=O)O)cc1-c1ccc(F)c2c1CN(C(=O)CC(C)(C)c1ccccc1)CC2` [Example 291, {3-[5-Fluoro-2-(3-methyl-3-phenyl-butyryl)-1,2,3,4-tetrahydro-isoquinolin-8-yl]-4-isopropoxy-phenyl}-acetic acid] gave an IC50 of 5.9 nM.
